{"source": "patent US7067254B2", "about": "“Diagnosis and treatment of inflammation and hyperactive immune conditions” (Board of Regents, The University of Texas System, priority 2001, dated 2006)", "key": {"[1]": {"tested_on": "bone marrow-derived DC", "assay": "ATP-induced pore formation in bone marrow-derived DC (lucifer yellow uptake)", "format": "cell-based, mouse", "conditions": "3 mM ATP, 15 min", "description": "(§1) FIGS. 6A, 6B, & 6C. P2Y receptor desensitization in CD39^−/− DC. […] (FIG. 6C), CD39^−/− or CD39^+/+ DC were pre-treated with apyrase or buffer alone and then examined for ATP-mediated activation responses. Data shown are the means±s.d. (n=3) of cell viability (left), IL-6 production (middle), and LY uptake (right). Statistically, significant differences are indicated by asterisks (** P<0.01).\n(§2) Measurement of ATP responsiveness."}, "[2]": {"tested_on": "bone marrow-derived DC", "assay": "ATP-induced IL-6 secretion by bone marrow-derived DC (ELISA)", "format": "cell-based, mouse", "description": "as §1, §2"}, "[3]": {"assay": "Inflammatory skin responses to locally administered ATP", "format": "in vivo, mouse"}, "[4]": {"tested_on": "bone marrow-derived DC", "assay": "ATP-mediated cytolysis of bone marrow-derived DC (cell viability, 7-AAD staining)", "format": "cell-based, mouse", "description": "as §1, §2"}, "[5]": {"tested_on": "Pam 212 keratinocytes", "assay": "ATP and ADP release from Pam 212 keratinocytes after skin irritant chemicals (luciferin-luciferase, pyruvate kinase)", "format": "cell-based, mouse", "conditions": "for ATP and ADP levels in culture supernatants: Pam 212 keratinocytes, 10 min incubation; for ATP release from Pam 212 keratinocytes: in vitro treatment, ATP in culture supernatants", "procedure": "(§3) FIGS. 3A, 3B, & 3C. […] (FIG. 3A), Pam 212 keratinocytes were treated with croton oil (CO), benzalkonium chloride (BAC), or ethyl phenylpropiolate (EPP) at the indicated concentrations or exposed to UVB irradiation at the indicated doses. […] (FIG. 3C), Pam 212 keratinocytes and XS52 LC were co-cultured at the indicated cell densities and treated for 10 min with PBS alone or with 0.0015% BAC. All data shown in this figure are representative sets of results (mean±SD, n=3) from three independent experiments. * p<0.05; ** p<0.01 (two-tailed Student's t-test).\nAs the amount of ATP is directly proportional to the light emitted, quantification of the emitted light provides a measure of the amount of ATP. […] Cellular ATP release is then measured by: obtaining cells growing in culture; replacing the culture medium with a buffer; adding the ATP releasing agent (chemical irritant or a modulator of an NTPDase-mediated immune response); obtaining a sample of the buffer surrounding the cells after allowing sufficient time for ATP release by the cell in response to the irritant or modulator of an NTPDase-mediated immune response; adding luciferin and luciferase to this buffer; and quantitating the light released using a luminometer. A negative control can comprise obtaining the same reading with no cells; and/or obtaining the same reading with no added ATP releasing agent. The data are then analyzed by comparing to the standard ATP curve. Generally the cells in such assays may be grown in a multi-well format.\nAdditionally, the release of ADP into culture media can be measured by the pyruvate kinase-mediated conversion to ATP. This enzymatic assay utilizes pyruvate kinase (PK) which catalyzes the following reaction: Phospho(enol)pyruvate+ADP→Pyruvate+ATP\n(§4) ATP and ADP released by endothelial cells and platelets are known to act as pro-inflammatory mediators in the vascular system."}, "[6]": {"tested_on": "Pam 212 keratinocytes", "assay": "LDH release from Pam 212 keratinocytes (CytoTox 96 assay kit)", "format": "cell-based, mouse", "procedure": "as §3, §4"}, "[7]": {"conditions": "mouse, in vivo", "description": "(§5) FIGS. 4A, 4B, 4C, 4D, 4E, 4F, 4G, & 4H. Irritant contact hypersensitivity responses in CD39-deficient mice. CD39^−/− mice (circles), CD39^+/− mice (triangles) or CD39^+/+ mice (squares) received topical application of 1% croton oil (FIG. 4A), 10% BAC (FIG. 4B), or 30% EPP (FIG. 4C) on the right ear and vehicle alone on the left ear. […] Statistical significant differences compared to the CD39^+/+ mice or to the CD39^+/− mice are indicated by asterisks or sharps, respectively (*^/# p<0.05 and **^/## p<0.01; two-tailed Student's t test). FIG. 4D, Ear skin samples were harvested from CD39^+/+ or CD39^−/− mice 5 days after topical application of vehicle alone or 1% CO and processed to histological analyses after H&E staining (original magnification: ×250). FIG. 4E, CD39^−/− mice (n=6) or C57BL/6 wild-type mice (n=10) (FIG. 4F) received local injections of apyrase on the right ear (closed circles) or PBS alone on the left ear (open circles) before and after topical application of 1% CO on both ears. The data shown are the mean±SEM of the swelling responses (the ear thickness after CO application minus the baseline thickness before application) at the indicated time points. Statistical significant differences (one-tailed Student's t-test) are indicated by asterisks (*p<0.05 and **p<0.01). […]"}, "[8]": {"tested_on": "IA+ epidermal cells", "assay": "LC emigration: surface densities of IA+ epidermal cells after local injection of TNFα", "format": "in vivo, mouse", "conditions": "CD39+/+ mice; local injection 100 ng/animal, 48 hr", "description": "FIGS. 5A, 5B, 5C, 5D, 5E, 5F, 5G, & 5H. Attenuated immune responses in CD39-deficient mice. […] The data shown are the means±s.e.m. (n=10) of the swelling responses. […] (FIG. 5C) Mice received local injection of TNFα and examined for surface densities of IA^+ epidermal cells (means±s.d., n=3). At 24 hr after topical application of FITC, the DLN were examined for the numbers of migratory LC (means±s.d., n=3) (FIG. 5D) localization of FITC^+ migratory LC after counter-staining of the B cell areas with PE-conjugated B220 mAb (FIG. 5E), and for the surface phenotype of FITC^+ migratory LC (FIG. 5F). Closed and open histograms represent the staining profiles with the indicated mAb and control IgG, respectively. Numbers in the parentheses indicate the mean fluorescence intensities (MFI). (FIG. 5G), Migratory LC isolated from OX-painted CD39^−/− mice (circles) or CD39^+/+ mice (squares) were co-cultured with OX-reactive, wild-type T-cells. The data shown are the means±s.d. (n=3) of interferon-γ (IFN-γ) concentrations in the culture supernatants (* P<0.05). (FIG. 5H), Bone marrow-derived DC generated from CD39^−/− mice (circles) or CD39^+/+ mice (squares) were pulsed with TNBS and injected into CD39^+/+ mice. […]\nMeasurement of DC function. […] Maturational states of migratory LC were assessed by the surface expression of CD86 and CD40 by the FITC^+ populations in DLN. […]"}, "[9]": {"tested_on": "cytotoxic T-cells", "conditions": "cited from earlier work"}, "[10]": {"assay": "Local apyrase injection in croton oil-induced ear swelling", "format": "in vivo, mouse", "description": "as §5"}, "[11]": {"tested_on": "endothelial cells", "conditions": "soluble apyrase added in the medium; Imai et al., 2000; cited from earlier work"}}}
{"molecule": "Nc1ncnc2c1ncn2[C@@H]1O[C@H](COP(=O)(O)OP(=O)(O)OP(=O)(O)O)[C@@H](O)[C@H]1O", "note": "[ATP, adenosine triphosphate]", "values": [{"measurement": "ATP-induced pore formation (lucifer yellow uptake) in CD39−/− DC", "setting": "[1]", "value": "intact nucleotide responsiveness"}, {"measurement": "IL-6 secretion in response to ATP", "setting": "[2]; CD39+/+ vs CD39−/− DC, 1 mM ATP, 16 hr", "value": "CD39^+/+ DC, but not CD39^−/− DC, secreted IL-6"}, {"measurement": "inflammatory skin responses in CD39−/− mice", "setting": "[3]", "value": "markedly elevated inflammatory skin responses"}, {"measurement": "ATP concentration that killed DC significantly", "setting": "[4]; CD39+/+ DC, 60 min incubation", "value": 2.5, "unit": "mM"}, {"measurement": "ATP concentration up to which DC were resistant to cytolysis", "setting": "[4]; CD39−/− DC, 60 min incubation", "value": "up to 10 mM"}]}
{"molecule": "CCOC(=O)C#Cc1ccccc1", "note": "[ethyl phenylpropiolate]", "values": [{"measurement": "ATP and ADP levels in culture supernatants", "setting": "[5]", "value": "detected at comparable levels"}, {"measurement": "ATP release from Pam 212 keratinocytes", "setting": "[5]", "value": "triggered rapid ATP release in a time- and dose-dependent manner"}, {"measurement": "release of lactate dehydrogenase (LDH)", "setting": "[6]", "value": "caused rapid release of lactate dehydrogenase (LDH)"}, {"measurement": "ear swelling responses in CD39−/− mice compared with CD39+/+ mice", "setting": "[7]", "value": "amplified significantly"}]}
{"molecule": "TNFα", "values": [{"measurement": "reduction in surface densities of IA+ epidermal cells", "setting": "[8]", "value": "about 50%"}]}
{"molecule": "apyrase", "values": [{"measurement": "effect on cytolytic capacity of cytotoxic T-cells", "setting": "[9]", "value": "inhibited partially"}, {"measurement": "effect of apyrase pre-treatment on capacity of CD39−/− DC to secrete IL-6 upon ATP stimulation", "setting": "[2]; apyrase 5 U/ml, 10 min before 1 mM ATP", "value": "restored"}, {"measurement": "effect of apyrase pre-treatment on susceptibility of CD39−/− DC to ATP-mediated cytolysis", "setting": "[4]; apyrase 5 U/ml, 10 min before 2.5 mM ATP", "value": "restored their susceptibility to ATP-mediated cytolysis"}, {"measurement": "effect on early phase ear swelling responses to CO in CD39−/− mice", "setting": "[10]; 0.2U/ear s.c. into ear 10 min before and 1 hr after 1% CO painting", "value": "diminished the extent of early phase responses"}, {"measurement": "effect on CO-induced skin inflammation in wild-type C57BL/6 mice", "setting": "[10]; 0.2U/ear s.c. into ear before and 1 hr after 1% CO painting", "value": "further reduced the extent of CO-induced skin inflammation"}, {"measurement": "inhibition of LPS-induced IL-1 secretion", "setting": "[11]", "value": "can be inhibited"}]}
{"molecule": "benzalkonium chloride", "values": [{"measurement": "ATP and ADP levels in culture supernatants", "setting": "[5]", "value": "detected at comparable levels"}, {"measurement": "ATP release from Pam 212 keratinocytes", "setting": "[5]", "value": "triggered rapid ATP release in a time- and dose-dependent manner"}, {"measurement": "release of lactate dehydrogenase (LDH)", "setting": "[6]", "value": "caused rapid release of lactate dehydrogenase (LDH)"}, {"measurement": "ear swelling responses in CD39−/− mice compared with CD39+/+ mice", "setting": "[7]", "value": "amplified significantly"}]}
